We go through three compounds from US20140140991A1, “METHODS OF TREATING A DISEASE OR DISORDER ASSOCIATED WITH BRUTON'S TYROSINE KINASE” (Celgene Avilomics Research, Inc., priority 2012, published 2014).

By solubility is commonly meant the dissolved amount per volume that the medium holds.

Data set [1] is described as follows: Safety and pharmacokinetics, single dose studies in healthy subjects. The class given is in vivo, human.
Data set [2] can be described thus: Environmental stability (heat, acid, base). The data set is classed as physicochemical.
The next data set is described as follows: physchem. The conditions noted are these: pH 3, aqueous buffer.
In a further data set the target is Syk (Homo sapiens, UniProt P43405). The conditions noted are these: DLBCL, CLL, and mantle cell lymphoma; cited from earlier work.

As for `C=CC(=O)Nc1cccc(Nc2nc(Nc3ccc(OCCOC)cc3)ncc2F)c1` [Compound 1, N-(3-(5-fluoro-2-(4-(2-methoxyethoxy)phenylamino)pyrimidin-4-ylamino)phenyl)acrylamide], in data set [1], the “pharmacokinetics (PK)” value is “predictable pharmacokinetics” and the safety entry was “adequate safety”.
On to `C=CC(=O)Nc1cccc(Nc2nc(Nc3ccc(OCCOC)cc3)ncc2F)c1.O=S(=O)(O)c1ccccc1` [N-(3-(5-fluoro-2-(4-(2-methoxyethoxy)phenylamino)pyrimidin-4-ylamino)phenyl)acrylamide benzenesulfonic acid salt], for which the “environmental instabilities (i.e. heat, acid, base) that require special handling” value in data set [2] is “no environmental instabilities”. Besides, the solubility in the data set “physchem” stood at 400 µg/mL.
For `COc1cc(Nc2ncc(F)c(Nc3ccc4c(n3)N(COP(=O)(O)O)C(=O)C(C)(C)O4)n2)cc(OC)c1OC` [fostamatinib disodium], the clinical responses result on Syk is on record as “produced clinical responses”.
